In patent EP0545103A1, “Insecticidal, acaricidal and molluscicidal 1-(substituted) thioalkylpyrroles” (priority 1991, dated 1993):

test system: Spodoptera eridania, 3rd instar larvae, southern armyworm; assay: Southern armyworm 7-day residual test; format: in vivo; conditions: R designates Residual: 7-day residual foliage; rating at 3 days; concentration not given
Method: (§1) Test solutions are prepared by dissolving the test compound in a 35% acetone in water mixture to give a concentration of 10,000 ppm. Subsequent dilutions are made with water as needed.
Spodoptera eridania, 3rd instar larvae, southern armyworm, 7-day residual
The limabean leaves treated in the above test are maintained under high intensity lamps in the greenhouse for 7 days. These lamps duplicate the effects of a bright sunny day in June in New Jersey and are kept on for 14 hour day length. After 7 days, the foliage is sampled and assayed as in the above-said test.
(§2) All of the above tests are rated according to the rating scale shown below.

| Structure (SMILES) | ARMYWORM Day 3 R |
| --- | --- |
| N#Cc1c(Br)c(C(F)(F)F)n(CSc2nc3ccccc3o2)c1-c1ccc(Cl)cc1 [Example 6] | 9 (100% kill) |
| CC(C)OP(=S)(OC(C)C)SCn1c(-c2ccc(Cl)cc2)c(C#N)c(Br)c1C(F)(F)F [Example 27] | 9 (100% kill) |
| CCN(CC)C(=S)SCn1c(-c2ccc(Cl)cc2)c(C#N)c(Br)c1C(F)(F)F [Example 26] | 9 (100% kill) |

same assay, conditions: R designates Residual: 7-day residual foliage; rating at 5 days; concentration not given

| Structure (SMILES) | ARMYWORM Day 5 R |
| --- | --- |
| N#Cc1c(Br)c(C(F)(F)F)n(CSc2nc3ccccc3o2)c1-c1ccc(Cl)cc1 [Example 6] | 9 (100% kill) |
| CC(C)OP(=S)(OC(C)C)SCn1c(-c2ccc(Cl)cc2)c(C#N)c(Br)c1C(F)(F)F [Example 27] | 9 (100% kill) |
| CCN(CC)C(=S)SCn1c(-c2ccc(Cl)cc2)c(C#N)c(Br)c1C(F)(F)F [Example 26] | 9 (100% kill) |

test system: Heliothis virescens, egg, tobacco budworm; assay: Tobacco budworm egg test, dipped cotton leaf and eggs; format: in vivo; set-up: key: 0: no effect; 10-25% kill; 26-35% kill; 36-45% kill; 46-55% kill; 56-65% kill; 66-75% kill; 76-85% kill; 86-99% kill; 9: 100% kill; conditions: 1000 ppm; mortality rating after 3 days
Method: as §1
Heliothis virescens, egg, tobacco budworm
A young cotton leaf about 6-7cm in length is dipped in an agitated test suspension for about 3 seconds. Eggs are collected on a cheesecloth and the cloth is cut into 10-20mm squares, each containing approximately 50-100 eggs which are 6-30 hours old. The egg-containing cheesecloth square is similarly dipped in a test suspension and placed on a treated cotton leaf. The combination is dried in a hood and then placed in an 8 ounce Dixie® cup #2168-ST (240ml volume, 6cm tall, 9.5cm top diameter, 8.0cm bottom diameter) into which a 5cm length of damp dental wick has been placed. The cup is covered with a clear plastic lid and held for 3 days, after which mortality counts are made.
as §2

| Structure (SMILES) | TOBACCO BUDWORM Egg |
| --- | --- |
| N#Cc1c(Br)c(C(F)(F)F)n(CSc2nc3ccccc3o2)c1-c1ccc(Cl)cc1 [Example 6] | 0 |
| CC(C)OP(=S)(OC(C)C)SCn1c(-c2ccc(Cl)cc2)c(C#N)c(Br)c1C(F)(F)F [Example 27] | 0 |
| CCN(CC)C(=S)SCn1c(-c2ccc(Cl)cc2)c(C#N)c(Br)c1C(F)(F)F [Example 26] | 0 |

test system: Diabrotic undecimpunctata howardi, 3rd instar southern corn rootworm; assay: Southern corn rootworm soil test; format: in vivo; set-up: key: 0: no effect; 10-25% kill; 26-35% kill; 36-45% kill; 46-55% kill; 56-65% kill; 66-75% kill; 76-85% kill; 86-99% kill; 9: 100% kill; conditions: 1 (ppm as headed), mortality rating after 6 days
Method: Diabrotic undecimpunctata howardi, 3rd instar southern corn rootworm
One cc of fine talc is placed in a 30 mL wide-mouth screw-top glass jar. One mL of the appropriate acetone test solution is pipetted onto the talc so as to provide 1.25 and 0.25 mg of active ingredient per jar. The jars are set under a gentle air flow until the acetone is evaporated. The dried talc is loosened, 1 cc of millet seed is added to serve as food for the insects and 25 mL of moist soil is added to each jar. The jar is capped and the contents thoroughly mixed on a Vortex Mixer. Following this, ten 3rd instar rootworms are added to each jar and the jars are loosely capped to allow air exchange for the larvae. The treatments are held for 6 days when mortality counts are made. Missing larvae are presumed dead, since they decompose rapidly and can not be found. The concentrations used in this test correspond approximately to 50 and 10 kg/ha, respectively.
as §2

| Structure (SMILES) | SOUTHERN CORN ROOTWORM |
| --- | --- |
| N#Cc1c(Br)c(C(F)(F)F)n(CSc2nc3ccccc3o2)c1-c1ccc(Cl)cc1 [Example 6] | 0 |
| CC(C)OP(=S)(OC(C)C)SCn1c(-c2ccc(Cl)cc2)c(C#N)c(Br)c1C(F)(F)F [Example 27] | 6 (66-75% kill) |
| CCN(CC)C(=S)SCn1c(-c2ccc(Cl)cc2)c(C#N)c(Br)c1C(F)(F)F [Example 26] | 0 |

same assay, conditions: 10 (ppm as headed), mortality rating after 6 days

| Structure (SMILES) | SOUTHERN CORN ROOTWORM |
| --- | --- |
| CC(C)OP(=S)(OC(C)C)SCn1c(-c2ccc(Cl)cc2)c(C#N)c(Br)c1C(F)(F)F [Example 27] | 7 (76-85% kill) |

same assay, conditions: 50 (ppm as headed), mortality rating after 6 days

| Structure (SMILES) | SOUTHERN CORN ROOTWORM |
| --- | --- |
| CC(C)OP(=S)(OC(C)C)SCn1c(-c2ccc(Cl)cc2)c(C#N)c(Br)c1C(F)(F)F [Example 27] | 9 (100% kill) |

test system: Spodoptera eridania, 3rd instar larvae, southern armyworm; assay: Southern armyworm systemic uptake (stem systemic) test; format: in vivo; set-up: key: 0: no effect; 10-25% kill; 26-35% kill; 36-45% kill; 46-55% kill; 56-65% kill; 66-75% kill; 76-85% kill; 86-99% kill; 9: 100% kill; conditions: cut stem in emulsion 3 days
From the text: Spodoptera eridania, systemic uptake, 3rd instar larvae, southern armyworm
Subsequent 10-fold dilutions are made with water as needed. Sieva limabean plants, with the primary leaves expanded to a length of 7-8 cm, are cut off at least 3 cm above the soil level to avoid contamination with soil bacteria which will cause decay of the stem during the test. The cut stem is placed in the test emulsion and wrapped with a bit of cotton to hold the stem off the bottom of the bottle and to limit evaporation. The treated stem is thus maintained for 3 days at 27° C to allow the test compound to be taken up into the plant. Following this, one leaf is removed from the plant and placed in a 100 x 10 mm petri dish with 10 southern armyworms as described above. Mortality counts and observations of feeding damage are made 3 and 5 days later.
as §2

| Structure (SMILES) | ARMYWORM Stem Sys |
| --- | --- |
| N#Cc1c(Br)c(C(F)(F)F)n(CSc2nc3ccccc3o2)c1-c1ccc(Cl)cc1 [Example 6] | 0 |
| CC(C)OP(=S)(OC(C)C)SCn1c(-c2ccc(Cl)cc2)c(C#N)c(Br)c1C(F)(F)F [Example 27] | 0 |
| CCN(CC)C(=S)SCn1c(-c2ccc(Cl)cc2)c(C#N)c(Br)c1C(F)(F)F [Example 26] | 0 |

test system: Spodoptera eridania, 3rd instar larvae, southern armyworm; assay: Southern armyworm 3rd instar test, dipped limabean leaf; format: in vivo; set-up: key: 0: no effect; 10-25% kill; 26-35% kill; 36-45% kill; 46-55% kill; 56-65% kill; 66-75% kill; 76-85% kill; 86-99% kill; 9: 100% kill; conditions: 10 ppm; rating at 3 days
Method: as §1
Spodoptera eridania, 3rd instar larvae, southern armyworm
A Sieva limabean leaf expanded to 7-8 cm in length is dipped in the test solution with agitation for 3 seconds and allowed to dry in a hood. The leaf is then placed in a 100 x 10 mm petri dish containing a damp filterpaper on the bottom and ten 3rd instar caterpillars. At 3 and 5 days, observations are made of mortality, reduced feeding, or any interference with normal molting.
as §2

| Structure (SMILES) | ARMYWORM Day 3 |
| --- | --- |
| N#Cc1c(Br)c(C(F)(F)F)n(CSc2nc3ccccc3o2)c1-c1ccc(Cl)cc1 [Example 6] | 0 |
| CC(C)OP(=S)(OC(C)C)SCn1c(-c2ccc(Cl)cc2)c(C#N)c(Br)c1C(F)(F)F [Example 27] | 0 |
| CCN(CC)C(=S)SCn1c(-c2ccc(Cl)cc2)c(C#N)c(Br)c1C(F)(F)F [Example 26] | 9 (100% kill) |

same assay, conditions: 10 ppm; rating at 5 days

| Structure (SMILES) | ARMYWORM Day 5 |
| --- | --- |
| CC(C)OP(=S)(OC(C)C)SCn1c(-c2ccc(Cl)cc2)c(C#N)c(Br)c1C(F)(F)F [Example 27] | 0 |
| CCN(CC)C(=S)SCn1c(-c2ccc(Cl)cc2)c(C#N)c(Br)c1C(F)(F)F [Example 26] | 9 (100% kill) |

same assay, conditions: 100 ppm; rating at 3 days

| Structure (SMILES) | ARMYWORM Day 3 |
| --- | --- |
| N#Cc1c(Br)c(C(F)(F)F)n(CSc2nc3ccccc3o2)c1-c1ccc(Cl)cc1 [Example 6] | 9 (100% kill) |
| CC(C)OP(=S)(OC(C)C)SCn1c(-c2ccc(Cl)cc2)c(C#N)c(Br)c1C(F)(F)F [Example 27] | 9 (100% kill) |
| CCN(CC)C(=S)SCn1c(-c2ccc(Cl)cc2)c(C#N)c(Br)c1C(F)(F)F [Example 26] | 9 (100% kill) |

same assay, conditions: 100 ppm; rating at 5 days

| Structure (SMILES) | ARMYWORM Day 5 |
| --- | --- |
| CC(C)OP(=S)(OC(C)C)SCn1c(-c2ccc(Cl)cc2)c(C#N)c(Br)c1C(F)(F)F [Example 27] | 9 (100% kill) |
| CCN(CC)C(=S)SCn1c(-c2ccc(Cl)cc2)c(C#N)c(Br)c1C(F)(F)F [Example 26] | 9 (100% kill) |

same assay, conditions: 1000 ppm; rating at 3 days

| Structure (SMILES) | ARMYWORM Day 3 |
| --- | --- |
| N#Cc1c(Br)c(C(F)(F)F)n(CSc2nc3ccccc3o2)c1-c1ccc(Cl)cc1 [Example 6] | 9 (100% kill) |
| CC(C)OP(=S)(OC(C)C)SCn1c(-c2ccc(Cl)cc2)c(C#N)c(Br)c1C(F)(F)F [Example 27] | 9 (100% kill) |
| CCN(CC)C(=S)SCn1c(-c2ccc(Cl)cc2)c(C#N)c(Br)c1C(F)(F)F [Example 26] | 9 (100% kill) |

same assay, conditions: 1000 ppm; rating at 5 days

| Structure (SMILES) | ARMYWORM Day 5 |
| --- | --- |
| CC(C)OP(=S)(OC(C)C)SCn1c(-c2ccc(Cl)cc2)c(C#N)c(Br)c1C(F)(F)F [Example 27] | 9 (100% kill) |
| CCN(CC)C(=S)SCn1c(-c2ccc(Cl)cc2)c(C#N)c(Br)c1C(F)(F)F [Example 26] | 9 (100% kill) |

test system: Heliothis virescens, 3rd instar tobacco budworm; assay: Tobacco budworm 3rd instar test, dipped cotton cotyledons; format: in vivo; set-up: key: 0: no effect; 10-25% kill; 26-35% kill; 36-45% kill; 46-55% kill; 56-65% kill; 66-75% kill; 76-85% kill; 86-99% kill; 9: 100% kill; conditions: 10 ppm; mortality rating after 3 days
Method: as §1
Heliothis virescens, 3rd instar tobacco budworm
Cotton cotyledons are dipped in the test solution and allowed to dry in a hood. When dry, each is cut into quarters and ten sections are placed individually in 30 mL plastic medicine cups containing a 5-7mm long piece of damp dental wick. One 3rd instar caterpillar is added to each cup and the cup is sealed with MYLAR® film. Treatments are maintained for 3 days before a mortality count and observation of reduction in feeding damage are made.
as §2

| Structure (SMILES) | TOBACCO BUDWORM 3rd Instar |
| --- | --- |
| N#Cc1c(Br)c(C(F)(F)F)n(CSc2nc3ccccc3o2)c1-c1ccc(Cl)cc1 [Example 6] | 0 |
| CC(C)OP(=S)(OC(C)C)SCn1c(-c2ccc(Cl)cc2)c(C#N)c(Br)c1C(F)(F)F [Example 27] | 0 |
| CCN(CC)C(=S)SCn1c(-c2ccc(Cl)cc2)c(C#N)c(Br)c1C(F)(F)F [Example 26] | 9 (100% kill) |

same assay, conditions: 100 ppm; mortality rating after 3 days

| Structure (SMILES) | TOBACCO BUDWORM 3rd Instar |
| --- | --- |
| CC(C)OP(=S)(OC(C)C)SCn1c(-c2ccc(Cl)cc2)c(C#N)c(Br)c1C(F)(F)F [Example 27] | 7 (76-85% kill) |
| CCN(CC)C(=S)SCn1c(-c2ccc(Cl)cc2)c(C#N)c(Br)c1C(F)(F)F [Example 26] | 9 (100% kill) |

same assay, conditions: 1000 ppm; mortality rating after 3 days

| Structure (SMILES) | TOBACCO BUDWORM 3rd Instar |
| --- | --- |
| CC(C)OP(=S)(OC(C)C)SCn1c(-c2ccc(Cl)cc2)c(C#N)c(Br)c1C(F)(F)F [Example 27] | 9 (100% kill) |
| CCN(CC)C(=S)SCn1c(-c2ccc(Cl)cc2)c(C#N)c(Br)c1C(F)(F)F [Example 26] | 9 (100% kill) |
